Test results from patent US20160030407A1, “Method of Treating Inflammatory Lung Disease” (priority 2010, published 2016).
“And” between values parts separate entries of the source, which are not always exact repeats. Equal entries are not always repeated.

Columns and labels:
[1] = tested on: IL-1β; test: LPS-induced IL-1β release in whole human blood; assay type: cell-based
Experimental: Whole human blood was treated with LPS to stimulate inflammatory responses. […] The inflammatory molecule IL-1β was measured after 16 hours.

[2] = Plasma pharmacokinetics after oral multi-dose anatabine polacrilex; assay type: in vivo, Sprague-Dawley rats; conditions: for Anatabine Concentration in rat plasma: dose 0.2 mg/kg, male, individual animals
Experimental: This study consisted of two groups of 8 animals each, 4 males and 4 females.
The vehicle was sterile phosphate buffered saline (PBS) (Amresco). […] Two formulations were prepared; one for each of the two treatment groups. The test compound was formulated for each treatment group just prior to the first dose administration and constantly stirred until dosing was completed (Table 37). Four aliquots of each dose level formulation were collected and stored at −80° C.
The animals were weighed prior to dosing and received three doses p.o. of test compound at a volume of 5 mL/kg. Blood was collected via the venus plexus (retro-orbital) into tubes containing (K2) EDTA. No more than 0.5 mL was collected per time point.
Sample preparation. Plasma samples were treated with three volumes of methanol containing internal standard at 1 μM (R,S)-Antabine-2,4,5,6-d4), incubated 10 min at 4° C., and centrifuged. The amount of the test agent in the supernatant was determined by LC/MS/MS.
Analysis. Samples were analyzed by LC/MS/MS using an Agilent 6410 mass spectrometer coupled with an Agilent 1200 high pressure liquid chromatography (HPLC) and a CTC PAL chilled autosampler, all controlled by MassHunter software (Agilent). After separation on a Hydrophilic interaction liquid chromatography (HILIC) HPLC column (Sepax) using an acetonitrile-ammonium acetate/acetic acid gradient system, peaks were analyzed by mass spectrometry (MS) using ESI ionization in multiple reaction monitoring (MRM) mode. MassHunter software was used to calculate the concentration of the test compounds in samples from the peak area using the appropriate calibration curves.
Descriptive statistics were calculated for all pharmacokinetic parameters. Elimination half-lives (t1/2) were calculated by linear regression of logarithmically transformed plasma concentration data for each period between doses and following the final dose.
Total areas under the plasma concentration curves (AUC) and under the first moment curves (AUMC) were calculated using linear trapezoidal summation across all concentration time points as well as for intervals between each dose administration and following the final dose. […] Mean absorption times (MAT) were calculated according to the following relation: […]

[3] = tested on: autoimmune thyroiditis; test: Experimental Autoimmune Thyroiditis (Example 16A): thyroid histopathology; assay type: in vivo, mice; conditions: 0.05 mg/ml in drinking water (approx. 12.5 mg/kg/day); day 21; p=0.05
Experimental: Thyroiditis was induced by injection of thyroglobulin emulsified in complete Freund's adjuvant […]. On days 0 and 7, female mice received subcutaneous injection of 100 μg thyroglobulin (2 injections of 50 μg each). Control mice drank water. […] Mice were sacrificed on day 21.
Thyroid glands were removed. One lobe was fixed in formalin for histopathology. One lobe was frozen for immunohistochemistry. The extent of lymphocytic infiltration and destruction of the thyroid gland was assessed digitally. Initially, the entire thyroid lobe was examined. […] The final score was expressed as the percent of the thyroid area infiltrated by lymphocytes and damaged. The results are shown graphically in FIG. 42. […] Photomicrographs of hematoxylin- and eosin-stained thyroids from control and anatabine-treated mice are shown in FIG. 43A (control) and FIG. 43B (anatabine-treated).

[4] = Anatabine 0.6 mg/kg, female rats, mean
[5] = Anatabine 0.6 mg/kg, male and female combined, mean
[6] = Anatabine 0.6 mg/kg, male rats, mean
[7] = Anatabine 6.0 mg/kg, female rats, mean
[8] = Anatabine 6.0 mg/kg, male and female combined, mean
[9] = Anatabine 6.0 mg/kg, male rats, mean
[10] = all data combined (overall), mean
[11] = both treatment groups combined, female rats, mean
[12] = females, 6.0 mg/kg BW group (3 x 2.0 mg/kg p.o.)

C1=CCC(c2cccnc2)NC1 (racemic) [Anatabine, 1,2,3,6-tetrahydro-[2,3′]bipyridinyl]
IL-1β production over time ([1]; whole human blood + LPS (Example 15)): rapid and continuous effect on the suppression
accumulation of IL-1β ([1]; whole human blood + LPS, 16 hours (Example 13)): reduced accumulation of IL-1β
IL-1β, area under the dose-response curve ([1]; whole human blood + LPS, 16 hours (Example 14)): reduced accumulation of IL-1β
AUC0→∞ [2, 4]: 290 ng·h/mL
MAT0→4 (mean absorption time) [2, 4]: 0.53 h
t1/2, 0→4 (elimination half-life after first dose) [2, 4]: 2.06 h
t1/2, terminal [2, 4]: 1.80 h
MAT0→4 (mean absorption time) [2, 5]: 0.61 h
MTT0→4 (mean transit time) [2, 5]: 3.06 h
AUC0→∞ [2, 6]: 280 ng·h/mL
MAT0→4 (mean absorption time) [2, 6]: 0.71 h
t1/2, terminal [2, 6]: 1.78 h
Cp, max (1) ([2]; Anatabine 6.0 mg/kg, female rats, after dose 1, mean): 260 ng/mL
MAT0→4 (mean absorption time) [2, 7]: 0.30 h
t1/2, 0→4 (elimination half-life after first dose) [2, 7]: 1.82 h
MAT0→4 (mean absorption time) [2, 8]: 0.52 h
MTT0→4 (mean transit time) [2, 8]: 2.97 h
MAT0→4 (mean absorption time) [2, 9]: 0.73 h
t1/2, 0→4 (elimination half-life after first dose) [2, 9]: 1.76 h
concentration at 30 min ([2]; Sprague-Dawley, rat, plasma, oral, 2 mg/kg BW, dose group 2, female, 30 min, mean): 160 ng/mL
concentration at 60 min ([2]; Sprague-Dawley, rat, plasma, oral, 2 mg/kg BW, dose group 2, female, 60 min, mean): 129 ng/mL
concentration at 235 min ([2]; Sprague-Dawley, rat, plasma, oral, 2 mg/kg BW, dose group 2, female, 235 min, mean): 44 ng/mL
concentration at 270 min ([2]; Sprague-Dawley, rat, plasma, oral, 2 mg/kg BW, dose group 2, female, 270 min, mean): 316 ng/mL
concentration at 300 min ([2]; Sprague-Dawley, rat, plasma, oral, 2 mg/kg BW, dose group 2, female, 300 min, mean): 234 ng/mL
concentration at 475 min ([2]; Sprague-Dawley, rat, plasma, oral, 2 mg/kg BW, dose group 2, female, 475 min, mean): 192 ng/mL
concentration at 540 min ([2]; Sprague-Dawley, rat, plasma, oral, 2 mg/kg BW, dose group 2, female, 540 min, mean): 386 ng/mL
concentration at 600 min ([2]; Sprague-Dawley, rat, plasma, oral, 2 mg/kg BW, dose group 2, female, 600 min, mean): 325 ng/mL
concentration at 720 min ([2]; Sprague-Dawley, rat, plasma, oral, 2 mg/kg BW, dose group 2, female, 720 min, mean): 208 ng/mL
MAT0→4 (mean absorption time) [2, 10]: 0.56 h
MTT0→4 (mean transit time) [2, 10]: 3.01 h
t1/2, 0→4 (elimination half-life after first dose) [2, 10]: 1.93 h
MAT0→4 (mean absorption time) [2, 11]: 0.42 h
MTT0→4 (mean transit time) [2, 11]: 2.87 h
t1/2, 0→4 (elimination half-life after first dose) [2, 11]: 1.94 h
MAT0→4 (mean absorption time) ([2]; both treatment groups combined, male rats, mean): 0.72 h
Anatabine Concentration in rat plasma ([2]; 30 min): <LOQ
Anatabine Concentration in rat plasma ([2]; 235 min): <LOQ
Anatabine Concentration in rat plasma ([2]; 475 min): <LOQ
Anatabine Concentration in rat plasma ([2]; 600 min): <LOQ
Anatabine Concentration in rat plasma ([2]; 720 min): <LOQ
Avg. Conc. of Anatabine in plasma ([2]; dose group 0.2, combined male and female, 30 min, mean): 36 ng/mL
Avg. Conc. of Anatabine in plasma ([2]; dose group 0.2, combined male and female, 60 min, mean): 31 ng/mL
Avg. Conc. of Anatabine in plasma ([2]; dose group 0.2, combined male and female, 235 min, mean): 10 ng/mL
Avg. Conc. of Anatabine in plasma ([2]; dose group 0.2, combined male and female, 270 min, mean): 26 ng/mL
Avg. Conc. of Anatabine in plasma ([2]; dose group 0.2, combined male and female, 300 min, mean): 27 ng/mL
Avg. Conc. of Anatabine in plasma ([2]; dose group 0.2, combined male and female, 475 min, mean): 11 ng/mL
Avg. Conc. of Anatabine in plasma ([2]; dose group 0.2, combined male and female, 540 min, mean): 30 ng/mL
Avg. Conc. of Anatabine in plasma ([2]; dose group 0.2, combined male and female, 600 min, mean): 26 ng/mL
Avg. Conc. of Anatabine in plasma ([2]; dose group 0.2, combined male and female, 720 min, mean): 13 ng/mL
Avg. Conc. of Anatabine in plasma ([2]; dose group 0.2, female, 30 min, mean): 37 ng/mL
Avg. Conc. of Anatabine in plasma ([2]; dose group 0.2, female, 60 min, mean): 35 ng/mL
Avg. Conc. of Anatabine in plasma ([2]; dose group 0.2, female, 235 min, mean): 12 ng/mL
Avg. Conc. of Anatabine in plasma ([2]; dose group 0.2, female, 270 min, mean): 26 ng/mL
Avg. Conc. of Anatabine in plasma ([2]; dose group 0.2, female, 300 min, mean): 34 ng/mL
Avg. Conc. of Anatabine in plasma ([2]; dose group 0.2, female, 475 min, mean): 8 ng/mL
Avg. Conc. of Anatabine in plasma ([2]; dose group 0.2, female, 540 min, mean): 34 ng/mL
Avg. Conc. of Anatabine in plasma ([2]; dose group 0.2, female, 600 min, mean): 28 ng/mL
Avg. Conc. of Anatabine in plasma ([2]; dose group 0.2, female, 720 min, mean): 12 ng/mL
Avg. Conc. of Anatabine in plasma ([2]; dose group 0.2, male, 30 min, mean): 33 ng/mL
Avg. Conc. of Anatabine in plasma ([2]; dose group 0.2, male, 60 min, mean): 30 ng/mL
Avg. Conc. of Anatabine in plasma ([2]; dose group 0.2, male, 235 min, mean): 11 ng/mL
Avg. Conc. of Anatabine in plasma ([2]; dose group 0.2, male, 270 min, mean): 26 ng/mL
Avg. Conc. of Anatabine in plasma ([2]; dose group 0.2, male, 300 min, mean): 26 ng/mL
Avg. Conc. of Anatabine in plasma ([2]; dose group 0.2, male, 475 min, mean): 18 ng/mL
Avg. Conc. of Anatabine in plasma ([2]; dose group 0.2, male, 540 min, mean): 38 ng/mL
Avg. Conc. of Anatabine in plasma ([2]; dose group 0.2, male, 600 min, mean): 29 ng/mL
Avg. Conc. of Anatabine in plasma ([2]; dose group 0.2, male, 720 min, mean): 12 ng/mL
Avg. Conc. of Anatabine in plasma ([2]; dose group 2, combined male and female, 30 min, mean): 201 ng/mL
Avg. Conc. of Anatabine in plasma ([2]; dose group 2, combined male and female, 60 min, mean): 139 ng/mL
Avg. Conc. of Anatabine in plasma ([2]; dose group 2, combined male and female, 235 min, mean): 63 ng/mL
Avg. Conc. of Anatabine in plasma ([2]; dose group 2, combined male and female, 300 min, mean): 222 ng/mL
Avg. Conc. of Anatabine in plasma ([2]; dose group 2, combined male and female, 600 min, mean): 237 ng/mL
Avg. Conc. of Anatabine in plasma ([2]; dose group 2, combined male and female, 720 min, mean): 194 ng/mL
Avg. Conc. of Anatabine in plasma ([2]; dose group 2, male, 30 min, mean): 243 ng/mL
Avg. Conc. of Anatabine in plasma ([2]; dose group 2, male, 60 min, mean): 165 ng/mL
Avg. Conc. of Anatabine in plasma ([2]; dose group 2, male, 235 min, mean): 72 ng/mL
Avg. Conc. of Anatabine in plasma ([2]; dose group 2, male, 270 min, mean): 303 ng/mL
Avg. Conc. of Anatabine in plasma ([2]; dose group 2, male, 300 min, mean): 183 ng/mL
Avg. Conc. of Anatabine in plasma ([2]; dose group 2, male, 475 min, mean): 97 ng/mL
Avg. Conc. of Anatabine in plasma ([2]; dose group 2, male, 540 min, mean): 226 ng/mL
Avg. Conc. of Anatabine in plasma ([2]; dose group 2, male, 600 min, mean): 151 ng/mL
Avg. Conc. of Anatabine in plasma ([2]; dose group 2, male, 720 min, mean): 203 ng/mL
Cp, max, final value [2, 12]: 374.8 ± 122.9 ng/mL
Cp, max, initial value [2, 12]: 259.8 ± 35.4 ng/mL
Cp, min(2) ([2]; females, 6.0 mg/kg BW group, 6 mg/kg): 180 ± 31 ng/mL and 180.0 ± 30.7 ng/mL
severity of thyroiditis (percent of thyroid area infiltrated and damaged) [3]: less severe thyroiditis than control mice
